According to US5135917A, “Interleukin receptor expression inhibiting antisense oligonucleotides” (Nova Pharmaceutical Corporation, priority 1990, dated 1992):

How the values were obtained:
Type in all cases: cell-based
Murine Swiss 3T3 cells = assay: IL-1 stimulated prostaglandin E2 synthesis, murine fibroblasts; conditions: oligonucleotides 30 μm for 48 hours, then IL-1β 10 μ/ml for 6 hours, control 60
Description: (§1) 1. IL-1 stimulated prostaglandin E2 synthesis.
(§2) Effects of expression of IL-1 receptors by murine and human fibroblasts were assessed as follows Murine Swiss 3T3 cells (American Type Culture Collection ATCC CCL 92) or human dermal fibroblasts (primary culture) were grown in 96-well plates in Dulbecco's modified Eagles medium containing either 10% calf serum or 10% fetal bovine serum, respectively (Grand Island Biological Company), to confluency. The culture medium was replaced with identical medium except that the serum had been heat-inactivated at 65° C. for 15 minutes to inactivate nucleases. Oligonucleotides (30 μm) were added to the cultures and incubated for 48 hours. […] Oligonucleotides (phosphorothioates) S0-1, S0-2 and S0-3 are antisense to murine IL-1 receptor DNA and S0-6 is antisense to human IL-1 receptor DNA.

human dermal fibroblasts [1] = assay: IL-1 stimulated prostaglandin E2 synthesis, human fibroblasts; conditions: Human cells; oligonucleotides 30 μm for 48 hours, then IL-1β 10 μ/ml for 6 hours; control 25
Description: as §1, §2

human dermal fibroblasts [2] = assay: Liposome delivery, IL-1 stimulated PGE2 in human dermal fibroblasts; conditions: liposomes; S0-6 30 μM; IL-1 10 U/ml for 4 hours; control (empty liposome) 65
Description: For the experiment human dermal fibroblasts were incubated for 18 hours with IL-1, 100 u/ml., to down-regulate existing receptors. The cells were then rinsed three times with phosphate-buffered saline containing 2 mM calcium and 0.1 mM magnesium to remove IL-1, then incubated 30 minutes. Liposomes were then added and the mixture was incubated for 30 minutes. Finally, polyethylene glycol (M.W.6000) was added for 1 minute, then the cultures were rinsed three times in culture medium. Cultures were incubated for eight hours, then stimulated with IL-1, 10 U/ml for 4 hours. Media were collected for radioimmunoassy of PGE2.

Question: What does the source list for “IL-1: cytokine interleukin 1, used as stimulus of prostaglandin E2 synthesis”?
Answer: PGE2, pg/well (Murine Swiss 3T3 cells): 375 pg/well; PGE2, pg/well (human dermal fibroblasts [1]): 285 pg/well; PGE2, pg/well (human dermal fibroblasts [2]): 398 pg/well
